This passage reports EC50 results from patent US9233961B2, “Compounds and compositions for the treatment of parasitic diseases” (Novartis AG, priority 2013, dated 2016).

Read-outs that look alike come from different tables or passages of the source.

The test system of assay [1] is L. donovani HU3 strain in mouse peritoneal macrophages. As to the kind of experiment: Assay for proliferation of Leishmania parasites in mouse peritoneal macrophages. Format: cell-based, Leishmania donovani. Particulars: Leishmania donovani, Peritoneal macrophage, read-out: L. donavani Macrophage EC50. An excerpt:
Assay for Proliferation of Leishmania Parasites
The activity of a compound according to the present invention for inhibition of parasitemai can be assessed by the parasite proliferation assay. The assay measures the increase in the parasite number in the assayed plate well using a DNA intercalating dye, SYBR Green I® dye (INVITROGEN) to stain Leishmania cell nuclei. It is understood that the assays illustrate the invention without in any way limiting the scope of the invention.
L. donovani HU3 strain is propagated by infecting BALB/c mice through tail vein injection with 10^7 Leishmania parasites. Infected mice are allowed to develop infection during 9-11 weeks post-infection. During this time, the parasites accumulate in the infected mouse spleens to large numbers, and the infected mice serve as the source of parasites for the in vitro measurement of compound efficacies. To assay a compound for anti-leishmanial activity, peritoneal macrophages isolated from non-infected BALB/c mice are seeded into 384-well plates at density 2×10^4 macrophages per well in […] of medium (RPMI 1640, 10% […], 10 mM HEPES, 1 mM sodium pyruvate, 1% Pen/Strep). Subsequently, the seeded plates are placed into an incubator set to maintain 37° C. temperature and atmosphere with 5% CO2. The next day, Leishmania parasites are isolated from the spleens of mice infected for 9-11 weeks and 4×10^5 isolated parasites in […] of the above media are added to each plate well. Plates are then returned into incubators and infection is allowed to proceed for 24 hours. After the infection of macrophages is completed, […] of compounds of the invention in the above medium, which also contains 5% DMSO, are added to plate wells containing infected macrophages. At the same time control compounds (miltefosine and amphotericin B) and DMSO are added to plates to serve as the positive and negative controls, respectively. After the compound addition, the plates are returned into incubator and cells infected with parasites are cultured for 5 days. At the end of cultivation, […] of 8% paraformaldehyde is added to plate wells and incubated for 15 min at room temperature. Following the incubation, the paraformaldehyde from plate wells is aspirated, and […] of PBS containing 0.2% Triton X-100 is added to wells. After 15 min incubation, the solution is aspirated from wells again, and replaced with SybrGreen Dye solution in PBS (1:125,000 dilution). Infected cells are imaged with Evotec Opera high-content microscope, and the number of parasites in well is determined by counting parasite nuclei visualized by staining with SybrGreen dye. The percentage inhibition of 50%, EC50, is calculated for each compound.
The inhibitory efficacy of the compounds of the invention in delaying the proliferation of L. donovani in mouse peritoneal macrophages is provided in Table I, infra.

The subject of assay [2] is Leishmania donovani axenic amastigote parasites. As to the kind of experiment: Leishmania donovani axenic amastigote proliferation assay. The assay is classed as cell-based. How it is done: Leishmania Donovani Axenic Amastigote Proliferation Assay
Leishmania donovani axenic amastigote parasites are grown at 37° C., 5% CO2 in media made of RPMI 1640, 4 mM L-glutamine, 20% heat inactivated FBS, 100 units/ml of penicillin and 100 μg/ml of streptomycin, 23 μM Folic Acid, 100 μM Adenosine, 22 mM D-glucose, 25 mM MES. The pH of media is adjusted to 5.5 at 37° C. using HCl. 20 μL of media is first dispensed into 384 well plates and 100 nL of the compounds of invention in DMSO are added to the plate wells. At the same time control compounds and DMSO are added to plates to serve as the positive and negative controls, respectively. 40 μL of parasite culture (9600 parasites) are then added to the plate wells. The plates are then placed into incubators. After 2 day incubation, 20 μL of Cell TiterGlo (Promega) is added to the plate wells. The luminescence signal of each well is measured using the Envision reader (Perkin Elmer). The percentage inhibition of 50%, EC50, is calculated for each of the compounds.

Where [3] appears, read: axenic amastigotes in vitro, read-out: L. donovani amastigotes EC50.
The mark [4] stands for this setting: 48 h, L. donovani axenic amastigotes, 2 day incubation, Cell TiterGlo luminescence, read-out: EC50.

Broadly, the EC50 is the midpoint of the concentration-response curve. `Cc1cnc2nc(-c3cc(NC(=O)[C@@H]4CCCN4)ccc3F)[nH]c2c1` [Compound 273]: the EC50 in assay [1] was above 50 µM; in assay [2] (setting [3]), above 25 µM.

Take `Cc1cnc2nc(-c3cc(NC(=O)c4cc5ccccn5n4)ccc3F)[nH]c2c1` [Compound 274]: the EC50 came out at 26.7 µM in assay [1] and 17 µM in assay [2] (setting [3]).

Turning to `Cc1cnc2nc(-c3cc(NC(=O)CCCN(C)C)ccc3F)[nH]c2c1` [Compound 275], the EC50 is above 50 µM in assay [1] and above 25 µM in assay [2] (setting [3]).

With `CN(C)Cc1ccc(C(=O)Nc2ccc(Cl)c(-c3nc4ncc(C(F)(F)F)cc4[nH]3)c2)o1` [Compound 277], the EC50 was 15.2 µM in assay [1] and above 25 µM in assay [2] (setting [3]).

Turning to `O=C(Nc1ccc(Cl)c(-c2nc3ncc(C(F)(F)F)cc3[nH]2)c1)c1ccccc1Cl` [Compound 278], the EC50 is 3.8 µM in assay [1] and above 25 µM in assay [2] (setting [3]).

For the compound `N#Cc1ccc(C(=O)Nc2ccc(Cl)c(-c3nc4ncc(C(F)(F)F)cc4[nH]3)c2)o1` [Compound 281], the EC50 in assay [1] is 6.3 µM; in assay [2] (setting [3]), 1.98 µM.

On to `O=C(Nc1ccc(Cl)c(-c2nc3ncc(C(F)(F)F)cc3[nH]2)c1)c1cncc(F)c1` [Compound 283], for which the EC50 in assay [1] worked out at 11.4 µM; in assay [2] (setting [3]) it was 4 µM.

As to `O=C(Nc1ccc(Cl)c(-c2nc3ncc(C(F)(F)F)cc3[nH]2)c1)c1ccc(F)o1` [Compound 284], the results for the EC50 in assay [1] and in assay [2] (setting [3]) were 4.1 µM and 0.7 µM, respectively.

Turning to `O=C(Nc1ccc(Cl)c(-c2nc3ncc(C(F)(F)F)cc3[nH]2)c1)c1cnccn1` [Compound 285], the figures for the EC50 in assay [1] and in assay [2] (setting [3]) were 5 µM and 0.73 µM, respectively.

For `CC(C)OC(=O)Nc1ccc(Cl)c(-c2nc3ncc(C#N)cc3n2C(=O)OC(C)C)c1` [Compound 288], the EC50 was 0.13 µM in assay [1] and 1.59 µM in assay [2] (setting [3]).

As for `CCOC(=O)Nc1ccc(Cl)c(-c2nc3ncc(C#N)cc3[nH]2)c1` [Compound 289], the EC50 came out at 8.1 µM in assay [1] and 4.2 µM in assay [2] (setting [3]).

As to `COC(=O)Nc1ccc(Cl)c(-c2nc3ncc(C#N)cc3[nH]2)c1` [Compound 290], the EC50 was 17.4 µM in assay [1] and 15.6 µM in assay [2] (setting [3]).

For `CNc1ccc(-c2cnc3nc(-c4cc(NC(=O)N5CCCC5)ccc4Cl)[nH]c3c2)cc1` [Compound 292, N-(4-chloro-3-{6-[4-(methylamino)phenyl]-1H-imidazo[4,5-b]pyridin-2-yl}phenyl)pyrrolidine-1-carboxamide], the EC50 is 0.17 µM in assay [1], around 0.08 µM in assay [2] (setting [4]) and 0.08 µM in assay [2] (setting [3]).

Turning to `O=C(Nc1ccc(Cl)c(-c2nc3ncc(-c4ccc(F)cc4)cc3[nH]2)c1)N1CCCC1` [Compound 293], the EC50 was 2.47 µM in assay [1] and 0.38 µM in assay [2] (setting [3]).

Take `O=C(Nc1ccc(Cl)c(-c2nc3ncc(-c4ccc(N5CCNCC5)cc4)cc3[nH]2)c1)N1CCCC1` [Compound 294]: the EC50 in assay [1] is 16.9 µM; in assay [2] (setting [3]), above 25 µM.

With `O=C(Nc1ccc(F)c(-c2nc3ncc(-c4ccc(OCCN5CCOCC5)cc4)cc3[nH]2)c1)N1CCCC1` [Compound 295], the EC50 worked out at 1.27 µM in assay [1] and 2.86 µM in assay [2] (setting [3]).

On to `COC(=O)Nc1ccc(-c2cnc3nc(-c4cc(NC(=O)N5CCCC5)ccc4Cl)[nH]c3c2)cc1` [Compound 296], for which the half-maximal effective concentration (EC50) in assay [1] came to 0.126 µM; in assay [2] (setting [3]) it was 0.034 µM.

Take `O=C(Nc1ccc(F)c(-c2nc3ncc(-c4cnn(C5CCNCC5)c4)cc3[nH]2)c1)N1CCCC1` [Compound 298]: the EC50 in assay [1] is above 50 µM; in assay [2] (setting [3]), above 25 µM.

Regarding `O=C(Nc1ccc(Cl)c(-c2nc3ncc(-c4ccc(OCCN5CCOCC5)cc4)cc3[nH]2)c1)N1CCCC1` [Compound 299], the EC50 amounted to 0.208 µM in assay [1] and 0.73 µM in assay [2] (setting [3]).

As to `O=C(Nc1ccc(Cl)c(-c2nc3ncc(-c4ccsc4)cc3[nH]2)c1)N1CCCC1` [Compound 300], the EC50 in assay [1] was 0.289 µM; in assay [2] (setting [3]), 0.143 µM.

On to `O=C(Nc1ccc(Cl)c(-c2nc3ncc(-c4cccc(OCCN5CCOCC5)c4)cc3[nH]2)c1)N1CCCC1` [Compound 301], for which the EC50 in assay [1] turned out to be 1.05 µM; in assay [2] (setting [3]), 0.91 µM.

Consider `O=C(Nc1ccc(Cl)c(-c2nc3ncc(-c4ccc(OCCCN5CCOCC5)cc4)cc3[nH]2)c1)N1CCCC1` [Compound 302], for which the EC50 in assay [1] turned out to be 9.9 µM; in assay [2] (setting [3]), 5.9 µM.

Regarding `COCCOc1ccc(-c2cnc3nc(-c4cc(NC(=O)N5CCCC5)ccc4Cl)[nH]c3c2)cc1` [Compound 303], the EC50 amounted to 0.4 µM in assay [1] and 0.146 µM in assay [2] (setting [3]).

`CC(C)(CN)c1ccc(-c2cnc3nc(-c4cc(NC(=O)N5CCCC5)ccc4Cl)[nH]c3c2)cc1` [Compound 304]: the results for the EC50 in assay [1] and in assay [2] (setting [3]) were 4.7 µM and 9.6 µM, respectively.

As for `C[Si](C)(C)CCOCn1cnc(-c2cnc3nc(-c4cc(NC(=O)N5CCCC5)ccc4Cl)[nH]c3c2)c1` [Compound 306], the 50% effective concentration (EC50) in assay [1] was found to be 0.181 µM; in assay [2] (setting [3]), 0.207 µM.

Consider `O=C(Nc1ccc(Cl)c(-c2nc3ncc(-c4c[nH]cn4)cc3[nH]2)c1)N1CCCC1` [Compound 307], for which the EC50 in assay [1] is above 50 µM; in assay [2] (setting [3]) it was above 25 µM.

In the case of `O=C(Nc1ccc(F)c(-c2nc3ncc(-c4ccc(OCC5CO5)cc4)cc3[nH]2)c1)N1CCCC1` (stereo not drawn) [Compound 310], the EC50 in assay [1] amounted to 4.6 µM; in assay [2] (setting [3]), 1.95 µM.

In the case of `CN1CCN(CCOc2ccc(-c3cnc4nc(-c5cc(NC(=O)N6CCCC6)ccc5F)[nH]c4c3)cc2)CC1` [Compound 311], the figures for the EC50 in assay [1] and in assay [2] (setting [3]) were above 6.9 µM and above 25 µM, respectively.

Turning to `COCCOc1ccc(-c2cnc3nc(-c4cc(NC(=O)N5CCCC5)ccc4F)[nH]c3c2)cc1` [Compound 312], the EC50 in assay [1] is 3.7 µM; in assay [2] (setting [3]), 1.75 µM.

For the compound `CC(C)OC(=O)Nc1ccc(Cl)c(-c2nc3ncc(-c4ccccc4N)cc3[nH]2)c1` [Compound 334], the values for the EC50 in assay [1] and in assay [2] (setting [3]) were 0.99 µM and 0.26 µM, respectively.

Turning to `CC(C)OC(=O)Nc1ccc(Cl)c(-c2nc3ncc(-c4ccccc4NC(=O)OC(C)C)cc3[nH]2)c1` [Compound 335], the EC50 in assay [1] is 1.09 µM; in assay [2] (setting [3]), 0.6 µM.

Turning to `CC(C)OC(=O)Nc1ccc(Cl)c(-c2nc3ncc(-c4ccccc4NC(=O)OC(C)C)cc3n2C(=O)OC(C)C)c1` [Compound 336], the EC50 in assay [1] came to 2.18 µM; in assay [2] (setting [3]), 1.89 µM.

For `CC(C)OC(=O)Nc1ccc(-c2cnc3nc(-c4cc(NC(=O)OC(C)C)ccc4Cl)[nH]c3c2)cc1` [Compound 337], the EC50 in assay [1] was 0.295 µM; in assay [2] (setting [3]), 0.119 µM.

Take `CC(C)OC(=O)Nc1ccc(Cl)c(-c2nc3ncc(-c4ccc(NC(=O)CN)cc4)cc3[nH]2)c1` [Compound 338]: the 50% effective concentration (EC50) in assay [1] was 0.42 µM; in assay [2] (setting [3]) it was 2.4 µM.

For the compound `CC(C)OC(=O)Nc1ccc(Cl)c(-c2nc3ncc(-c4ccc(NC(=O)CCN)cc4)cc3[nH]2)c1` [Compound 339], the EC50 in assay [1] came out at 1.82 µM; in assay [2] (setting [3]), 3.7 µM.

With `CC(C)OC(=O)Nc1ccc(Cl)c(-c2nc3ncc(-c4ccccc4NC(=O)CN)cc3[nH]2)c1` [Compound 340], the results for the EC50 in assay [1] and in assay [2] (setting [3]) were 9.8 µM and 11.7 µM, respectively.

Regarding `COC(=O)Nc1ccc(-c2cnc3nc(-c4cc(NC(=O)OC(C)C)ccc4Cl)[nH]c3c2)cc1` [Compound 341, methyl N-{4-[2-(2-chloro-5-{[(propan-2-yloxy)carbonyl]amino}phenyl)-1H-imidazo[4,5-b]pyridin-6-yl]phenyl}carbamate], the EC50 is 0.23 µM in assay [1], around 0.08 µM in assay [2] (setting [4]) and 0.08 µM in assay [2] (setting [3]).

`CC(C)OC(=O)Nc1ccc(Cl)c(-c2nc3ncc(-c4ccccc4NC(=O)CCN)cc3[nH]2)c1` [Compound 342]: the EC50 in assay [1] was 39.1 µM; in assay [2] (setting [3]), above 25 µM.
